{
  "source": "patent EP0338756B1",
  "about": "“Use of 1,2,4-trioxanes as antiparasitics and anthelmintics” (OXACO S.A., priority 1988, dated 1989)",
  "key": {"Onchocerca gutturosa [1]": {"tested_on": "Onchocerca gutturosa", "experiment": "Onchocerca gutturosa motility, using parasites, medium, serum, cells and test drugs", "details": "with serum and cells", "description": "(§1) Testing in vitro against Onchocerca gutturosa is a valid model for activity against Onchocerca volvulus. Testing of test drugs (Compounds 1, 2, 3, 4, 5, 7, 8, 9, 11, and 12 of Table 1) against the parasitic worms Onchocerca gutturosa was carried out in accordance with the method described in J Helminth (1987) 60, 271, firstly using parasites, medium, serum, cells and test drugs."}, "Onchocerca gutturosa [2]": {"tested_on": "Onchocerca gutturosa", "experiment": "Tetrazolium colorimetric test (formazan formation), using parasites, medium, cells and test drug", "details": "5x10⁻⁵ M printed for the test Compounds", "description": "A suitable colorimetric assay uses formation of formazan, a blue dye, from tetrazolium cation generated by 3-[…] bromide (J Helminth (1987) 60, 271). Firstly, Compounds 1, 2, 3, 4, 5, 7, 8, 9, 11 and 12, along with artemisinin and arteether were tested using parasites, medium, cells and test drug."}, "Onchocerca gutturosa [3]": {"tested_on": "Onchocerca gutturosa", "experiment": "Onchocerca gutturosa motility, using parasites, medium and drug", "details": "medium and drug only, time not given", "description": "as §1, with “drugs. Secondly, test drugs (Compounds 2, 3, 4, 7, 8, 9 and 12 of Table 1) were tested using parasites, medium and drug. […] However, between 4 and 7 days, all the tested Compounds had completely immobilized the worms. Under these conditions, commercial anti-helminthic drugs and artemisinin also cut motility by some 30-40%.” for “drugs.”"}},
  "data": [
    {"molecule": "CC1(C)OO[C@]2(c3ccccc3)CCC(c3ccccc3)=C[C@@H]2O1", "note": "(relative stereo) [Compound 12]", "values": [
      {"measurement": "reduced motility", "setting": "Onchocerca gutturosa [1]; after 7 days", "value": 100, "unit": "%"},
      {"measurement": "effect on motility", "setting": "Onchocerca gutturosa [1]; two to three days exposure", "value": "markedly inhibitory"},
      {"measurement": "inhibition of formazan formation", "setting": "Onchocerca gutturosa [2]", "value": "more than 90%"}
    ]},
    {"molecule": "CCO[C@H]1O[C@@H]2O[C@@]3(C)CC[C@H]4[C@H](C)CC[C@@H]([C@H]1C)[C@@]24OO3", "note": "[arteether]", "values": [
      {"measurement": "reduced motility", "setting": "Onchocerca gutturosa [1]; after a day", "value": 30, "unit": "%"}
    ]},
    {"molecule": "C[C@@H]1CC[C@H]2[C@@H](C)C(=O)O[C@@H]3O[C@@]4(C)CC[C@@H]1[C@]32OO4", "note": "[artemisinin, Artemisinin]", "values": [
      {"measurement": "effect on motility", "setting": "Onchocerca gutturosa [1]; a day's exposure", "value": "ineffective"},
      {"measurement": "cut motility", "setting": "Onchocerca gutturosa [3]", "value": "30-40%"}
    ]}
  ]
}
